# In patent publication US20160046618A1, “Cyclopropyl Fused Thiazin-2-Amine Compounds as Beta-Secretase Inhibitors and Methods of Use” (AMGEN INC., priority 2014, published 2016):
# Where two headings read alike, the source gives them in different places.
# Experiments:
# [1] = phase 1, healthy individuals; cited from earlier work
# CSF Aβ40 = conditions: healthy individuals, 36 h post-dose, cited from earlier work
# Aβ in lumbar CSF = conditions: oral dosing of 30 or 90 mg; cited from earlier work
# [2] = healthy volunteers; cited from earlier work
# [3] = cited from earlier work
# [4] = system: pigment epithelium of the rat's eye; conditions: higher compound dose given for three months; cited from earlier work
# Aβ 40 in rat CSF = test: In vivo inhibition of beta-secretase: Aβ40 reduction in rat CSF; conditions: after 4 h
# Outline: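 Male Sprague Dawley rats (200 g) dosed orally in 2% HPMC, 1% Tween80, pH 2.2, at 3, 10 or 30 mg/kg; CSF and brain taken 4 h later. Brain homogenate centrifuged at 355,000 g; Aβ40 measured by ECL sandwich ELISA (4G8 capture, Abeta40 C-terminal Fab detection), as % reduction versus vehicle controls.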
# Recombinant Cat D = Recombinant Cat D (Homo sapiens (Human), UniProt P07339); test: In vitro enzymatic Cathepsin D (Cat D) FRET assay; format: biochemical; conditions: read-out: IC50 IP (μM) CatD
# Chain of Recombinant Cat D (P07339 65-412): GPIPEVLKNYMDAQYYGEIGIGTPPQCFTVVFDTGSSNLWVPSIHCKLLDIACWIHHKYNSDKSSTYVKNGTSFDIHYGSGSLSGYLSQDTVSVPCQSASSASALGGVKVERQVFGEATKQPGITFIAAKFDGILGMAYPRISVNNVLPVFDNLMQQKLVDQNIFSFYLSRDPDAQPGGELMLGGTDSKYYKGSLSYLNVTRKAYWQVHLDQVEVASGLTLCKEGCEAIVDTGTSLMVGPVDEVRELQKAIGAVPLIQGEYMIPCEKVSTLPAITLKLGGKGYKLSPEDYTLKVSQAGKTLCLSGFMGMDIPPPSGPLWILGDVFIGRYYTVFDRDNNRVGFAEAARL
# Outline: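 Cleavage of a 20 nM FRET peptide by CHO-derived Cat D over 1 h at pH 3.5 (citrate buffer with CHAPS, 10% DMSO final). Endpoint fluorescence is read after Tris quench.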
# human recombinant BACE2 = human recombinant BACE2 (Homo sapiens (Human), UniProt Q9Y5Z0); test: In vitro enzymatic BACE2 FRET assay; format: biochemical; conditions: read-out: IC50 IP (μM) BACE2 enzyme
# Chain of human recombinant BACE2 (Q9Y5Z0 63-518): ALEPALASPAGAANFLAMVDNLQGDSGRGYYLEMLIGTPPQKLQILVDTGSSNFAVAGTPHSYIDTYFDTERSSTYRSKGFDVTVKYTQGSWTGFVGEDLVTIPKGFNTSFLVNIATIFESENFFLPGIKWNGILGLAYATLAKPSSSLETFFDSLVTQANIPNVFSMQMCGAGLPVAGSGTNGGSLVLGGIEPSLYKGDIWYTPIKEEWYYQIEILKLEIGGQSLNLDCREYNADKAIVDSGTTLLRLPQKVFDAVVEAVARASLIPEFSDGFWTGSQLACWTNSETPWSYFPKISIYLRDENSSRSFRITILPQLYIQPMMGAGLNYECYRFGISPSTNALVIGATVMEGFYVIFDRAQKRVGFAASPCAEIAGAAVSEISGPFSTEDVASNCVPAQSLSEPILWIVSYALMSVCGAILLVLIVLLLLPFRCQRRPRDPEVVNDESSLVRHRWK
# Outline: (§1)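 Read-out: dequenched fluorescence, excitation 488 nm, emission 590 nm, after proteolysis of a quenched peptide spanning the BACE cleavage site. Substrate at 50 nM, 1 h incubation, termination by Tris addition to neutral pH.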
# human recombinant BACE1 = human recombinant BACE1 (Homo sapiens (Human), UniProt P56817); test: In vitro enzymatic BACE1 FRET assay; format: biochemical; conditions: read-out: IC50 IP (μM) BACE1 enzyme
# Chain of human recombinant BACE1 (P56817 46-501): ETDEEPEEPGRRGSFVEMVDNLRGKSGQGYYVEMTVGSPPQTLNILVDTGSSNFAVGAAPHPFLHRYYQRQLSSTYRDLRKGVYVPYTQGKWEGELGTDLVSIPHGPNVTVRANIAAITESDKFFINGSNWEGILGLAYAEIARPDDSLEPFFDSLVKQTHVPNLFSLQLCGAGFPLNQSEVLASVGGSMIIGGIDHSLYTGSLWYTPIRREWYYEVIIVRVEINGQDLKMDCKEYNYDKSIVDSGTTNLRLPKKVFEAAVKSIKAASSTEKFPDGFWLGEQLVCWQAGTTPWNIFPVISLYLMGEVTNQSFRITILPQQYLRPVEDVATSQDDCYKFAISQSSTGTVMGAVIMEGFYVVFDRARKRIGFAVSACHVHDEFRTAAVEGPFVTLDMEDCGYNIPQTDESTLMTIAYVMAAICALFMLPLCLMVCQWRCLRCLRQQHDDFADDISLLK
# Outline: as §1
# Aβ 40 in rat brain = test: In vivo inhibition of beta-secretase: Aβ40 reduction in rat brain; conditions: after 4 h
# Outline: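 Rats were dosed by oral gavage at up to 100 mg/kg in 2% HPMC, 1% Tween80, pH 2.2, with vehicle-only controls. Supernatant Aβ40 was measured by ECL sandwich ELISA with biotinylated-4G8 capture and C-terminal Fab40 detection.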
# [5] = system: Aβ40 in conditioned medium of cells stably expressing Amyloid Precursor Protein (APP); test: In vitro BACE-1 cell-based assay (Aβ40 sandwich ELISA); conditions: read-out: IC50 IP (μM) BACE1 cell
# Outline: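 Read-out: time-resolved fluorescence (Streptavidin-Europium) of Aβ40 captured by pAb40 and detected with biotinylated 6E10 from supernatants of APP-stable cells. Cells were exposed to compound for 24 h, 10-point dose response, top dose 100 μM or 10 μM, 0.1% DMSO. IC50 fitted to percent of control.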
IC50 (Recombinant Cat D; Cathepsin D FRET enzyme assay) [µM],IC50 (human recombinant BACE2; BACE2 FRET enzyme assay) [µM],IC50 (human recombinant BACE1; BACE1 FRET enzyme assay) [µM],IC50 ([5]; BACE1 cell-based assay) [µM],IC50 (Recombinant Cat D) [µM],IC50 (human recombinant BACE2) [µM],IC50 (human recombinant BACE1) [µM],IC50 [5] [µM],Structure (SMILES),% Aβ 40 reduction in rat CSF at 10 mpk (Aβ 40 in rat CSF) [%],% Aβ 40 reduction in rat brain at 10 mpk (Aβ 40 in rat brain) [%],other results
,,,,,,,,CN1C(=N)N[C@](C)(c2cc(NC(=O)c3ccc(F)cn3)ccc2F)CS1(=O)=O [MK-8931],,,tolerability [1]: generally well tolerated; reduction of CSF Aβ40 concentrations (CSF Aβ40; single dose of 100 mg): 75%; reduction of CSF Aβ40 concentrations (CSF Aβ40; single dose of 550 mg): 92%
,,,,,,,,"C[C@@]1(c2cc(-c3cncnc3)c(F)cc2F)CCSC(N)=N1 [LY2811376, (S)-4-(2,4-difluoro-5-pyrimidin-5-yl-phenyl)-4-methyl-5,6-dihydro-4H-[1,3]thiazin-2-ylamine]",,,Aβ reductions in lumbar CSF (Aβ in lumbar CSF): Prominent and long-lasting Aβ reductions; safety and tolerability [2]: safe and well tolerated
,,,,,,,,C[C@@]1(c2cc(-c3cncnc3)c(F)cc2F)CCSC(N)=N1 [LY 2811376],,,eye assessments of people from the Ph I dosing trial [3]: did not show any abnormalities; retinal toxicity finding in rat toxicology studies [4]: damaged the pigment epithelium of the rat's eye
> 400,0.23,0.0105,0.00455,,,,,"C#CCOc1cnc2c(Nc3ccc(F)c([C@@]4(CF)N=C(N)S[C@@]5(CO)C[C@H]54)c3)nccc2c1 [Example 52, ((1S,5S,6S)-3-amino-5-(fluoromethyl)-5-(2-fluoro-5-((3-(2-propyn-1-yloxy)-1,7-naphthyridin-8-yl)amino)phenyl)-2-thia-4-azabicyclo[4.1.0]hept-3-en-1-yl)methanol]",16,0,
,,,,> 400,0.819,0.0105,0.0464,"Cc1cc(OCC(F)(F)F)cnc1C(=O)Nc1ccc(F)c([C@@]2(C)N=C(N)S[C@@]3(CF)C[C@H]32)c1 [Example 689, N-(3-((1S,5S,6S)-3-amino-1-(fluoromethyl)-5-methyl-2-thia-4-azabicyclo[4.1.0]hept-3-en-5-yl)-4-fluorophenyl)-3-methyl-5-(2,2,2-trifluoroethoxy)-2-pyridinecarboxamide]",38,10,
,,,,595,0.0601,0.000829,0.00608,"C[C@]1(c2cc(NC(=O)c3cnc(OCC(F)(F)F)cn3)cc(F)c2F)N=C(N)S[C@@]2(CF)C[C@H]21 [Example 814, N-(3-((1S,5S,6S)-3-amino-1-(fluoromethyl)-5-methyl-2-thia-4-azabicyclo[4.1.0]hept-3-en-5-yl)-4,5-difluorophenyl)-5-(2,2,2-trifluoroethoxy)-2-pyrazinecarboxamide]",76,68,
1350,0.0983,0.033,0.00344,,,,,"N#Cc1cnc2c(Nc3ccc(F)c([C@@]4(CF)N=C(N)S[C@H]5C[C@H]54)c3)ncnc2c1 [Example 51, 4-((3-((1S,5S,6S)-3-amino-5-(fluoromethyl)-2-thia-4-azabicyclo[4.1.0]hept-3-en-5-yl)-4-fluorophenyl)amino)pyrido[3,2-d]pyrimidine-7-carbonitrile]",,,% Aβ 40 reduction in rat CSF (3 mpk) (Aβ 40 in rat CSF; 3 mpk): 23 (3 mpk) %; % Aβ 40 reduction in rat brain (3 mpk) (Aβ 40 in rat brain; 3 mpk): 17 (3 mpk) %
> 400,< 0.00203,0.00299,0.00427,,,,,"NC1=N[C@](CF)(c2cc(Nc3nccc4cc(Cl)cnc34)ccc2F)[C@@H]2C[C@]2(CO)S1 [Example 45, ((1S,5S,6S)-3-amino-5-(5-((3-chloro-1,7-naphthyridin-8-yl)amino)-2-fluorophenyl)-5-(fluoromethyl)-2-thia-4-azabicyclo[4.1.0]hept-3-en-1-yl)methanol]",17,0,
,,,,1060,0.0157,0.000643,0.00228,"Cc1nc(OCc2ncco2)cnc1C(=O)Nc1cc(F)c(F)c([C@@]2(C)N=C(N)S[C@@]3(CF)C[C@H]32)c1 [Example 803, N-(3-((1S,5S,6S)-3-amino-1-(fluoromethyl)-5-methyl-2-thia-4-azabicyclo[4.1.0]hept-3-en-5-yl)-4,5-difluorophenyl)-3-methyl-5-(1,3-oxazol-2-ylmethoxy)-2-pyrazinecarboxamide]",59,45,
